Laboratory results taken from patent US12029777B2, “Serine proteinase inhibitors: Serp-1 and Serp-1 RCL-derived peptides effect on microbiome composition and uses thereof” (ARIZONA BOARD OF REGENTS ON BEHALF OF ARIZONA STATE …, priority 2019, dated 2024).
Entries after “also recorded” stand apart in the source; their conditions may differ.

Tests used:
MHV-68 [1] = test: Survival after lethal intraperitoneal MHV-68 infection of IFNγR−/− mice; format: in vivo; conditions: for survival after MHV-68 infection (modified S-7 peptides): MHV-68 infection model; for survival at 150 days: 100 ng/g IP injections for 30 days, no antibiotics, MHV-68 infected IFNγR−/− mice; for median survival: 10 days antibiotic pre-treatment, then MHV-68 infection and 30 days IP treatment; for efficacy after antibiotic treatment versus saline treatment after antibiotics: +Abx vs Saline+Abx, survival
Excerpt: Animals. IFNγR^−/− mice (B6.129S7-Ifngr1^tm1Agt/J) were purchased from the Jackson Laboratory (Bar Harbor, ME, USA). Animals were housed in barrier conditions at the University of Florida Animal Care Services vivarium and bred under specific pathogen-free conditions. Mice were weaned at 3 weeks, maintained on a 12-hour light-dark cycle and were fed water and standard rodent chow ad libitum.
Antibiotic treatment. At 4 weeks of age, IFNγR^−/− mouse cohorts were transferred from the ABSL1 colony to a separate, ABSL2 colony. Gut microbiome suppression was achieved by replacing standard drinking water with autoclaved reverse osmosis water (obtained from the same animal care facility) containing an antibiotic cocktail (Table 1) composed of Streptomycin (2 g/L), Gentamicin (0.5 g/L), Bacitracin (1 g/L) and Ciprofloxacin (0.125 g/L) for 10 days. One day (24 hours) prior to infection, medicated water was replaced with standard animal care facility water, which was maintained for the remainder of the experiment.
MHV-68 infection. On day 11 (after 10 days of antibiotics) mice (5 weeks old) were infected with MHV-68 at a dose of 12.5×10^6 PFU in 0.1 mL DMEM by intraperitoneal (IP) injection as previously described22,25,27,30. Mice were returned to the colony and monitored for signs of distress for the duration of the experiment. Mice were either followed for 150 days to determine survival or euthanized at 3 days post-infection and organs harvested into formalin for histology or RNAlater (Thermo Scientific, USA) for microbiome analyses. Details on the numbers of MHV-68-infected mice in this study are detailed in Table 2.
Statistical analysis. Survival and pathology statistics were analyzed with GraphPad Prism v8.0.1. Kaplan-Meier survival statistics were calculated using Log-rank (Mantel-Cox) testing. For visualization, individual comparison curves are presented. Lung pathology statistics were compared using a Two-Way ANOVA with a Fisher's LSD or Tukey's post-hoc test. Bars are mean±standard error. P-value less than 0.05 was considered significant. *p<0.05, **p<0.01, ***p<0.001, ****p<0.0001; n.s. is not significant.
MHV-68 infections establish latency with chronic infection in wildtype mice, causing only flu-like symptoms. Conversely, intraperitoneal infection of mice with underlying immune deficiency, as for IFNγR^−/− mice, results in a lethal large vessel vasculitis, colitis and hemorrhagic pneumonia with early mortality. Intranasal infection, an alternative model for MHV-68, is not a model for severe vasculitic syndromes. This intraperitoneal infection model of vasculitis has been used to study the pathogenesis of gammaherpesvirus host-pathogen interactions, as well as to investigate the potential for anti-inflammatory treatment of associated inflammatory vasculitic syndromes. Intraperitoneal infection of IFNγR−/− mice with 12.5×10^6 pfu was performed with follow-up for 150 days to determine survival rates. MHV-68 infection with administration of control saline treatment alone for 30 days was lethal, with a median survival of 41 days. […] Thus, Serp-1 and S-7 protect IFNγR−/− mice after lethal MHV-68 infection.
The potential for dependence of Serp-1 and S-7 therapeutic efficacy on the gut bacterial microbiome in MHV-68 infected IFNγR^−/− mice was investigated. Mice were treated with medicated drinking water (Table 1) for 10 days, placed on normal water for 24 hours, then infected with MHV-68 and concurrently treated for 30 days with either Serp-1 or S-7 by IP injection. Mice were followed for survival or 3-day follow-up (FIG. 2A).

MHV-68 [2] = test: Lung histopathology and quantitative morphometry at 3 days after MHV-68 infection; format: in vivo, mice; conditions: for severe pulmonary pathology (consolidation and inflammation): absence of antibiotics, vs saline; for severe pulmonary pathology (consolidation and inflammation) / early lung pathology after antibiotic treatment: 3-day follow-up; for alveolar wall thickness: no antibiotics, versus saline-treated controls; for alveolar lumen area: without antibiotic pre-treatment, compared to saline-treated controls
Method: Histopathology. Mice were euthanized at 3 days follow-up after infection by carbon dioxide asphyxiation followed by cervical dislocation. Organs were harvested and fixed in 10% neutral buffered formalin. Samples were dehydrated through graded alcohol, paraffin-embedded, sectioned into 4-6 μm ribbons, captured on charged glass and dried overnight at 37° C. prior to processing for histopathology. Slides were rehydrated, stained with Gill's hematoxylin No. 3 and Eosin Y (H&E) according to standard procedure, dehydrated and mounted in Cytoseal XYL (Thermo Fisher Scientific, USA).
Quantitative morphometry. H&E-stained aorta, lung and colon sections were imaged with a 20×/0.5NA objective on an Olympus BX51 microscope equipped with an Olympus DP74 camera operated by cellSens Dimensions v1.16 software. Objective-calibrated measurements of alveolar septal thickness and lumen area were collected using cellSens Dimensions. At least 50 measurements were collected and averaged for each mouse, and at least three mice were examined for each group. Images were processed for visualization in figures using ImageJ/FIJI v1.52i92.

MHV-68 [3] = test: MHV-68 antigen immunostaining in lungs at 3 days after infection; format: in vivo, mice; conditions: for MHV-68 antigen levels in the lungs: without antibiotic treatment, 3-day follow-up
Method: (§1) Immunohistochemistry. FFPE blocks containing lung tissue were sectioned into 4-6 μm ribbons, captured on charged glass and dried overnight at 37° C. prior to processing. Slides were rehydrated and epitopes retrieved by boiling in sodium citrated buffer. Endogenous peroxidases were quenched with 3% hydrogen peroxide, slides were blocked in 5% bovine serum albumin in TBS/0.1% Tween 20 and sections were probed with rabbit polyclonal antibody against CD3 (Abcam ab5690; 1:200), CD4 (Abcam ab183685; 1:1000) or CD8 (Abcam ab209775; 1:2000). For MHV-68 detection, 1:500 rabbit anti-serum or pre-immune serum (as control) were used for immunostaining (kind gift of Dr. H. W. Virgin 1119). 1:500 goat anti-rabbit HRP was used for secondary staining (Jackson Immuno Research 111-035-144). […] Sections were imaged with a 40×/0.75NA objective.

[4] = test system: CD3+, CD4+ and CD8+ cells in the lungs; test: Immunohistochemistry of CD3+, CD4+, CD8+ cells in lungs at 3 days after MHV-68 infection; format: in vivo, mice; conditions: for CD3 infiltration-promoting effect and CD8 bias after antibiotic treatment: after antibiotic depletion of gut microbiome; for CD8+ staining in lungs / detectable CD3+ cells in the lungs / pulmonary CD4+ cells: no antibiotics, 3-day follow-up
Method: as §1

uPA = uPA (Homo sapiens, UniProt P00749); test: In vitro uPA substrate conversion assay; format: biochemical; conditions: presence of the antibiotic cocktail

Row | Molecule | survival after MHV-68 infection (modified S-7 peptides) (MHV-68 [1]) | severe pulmonary pathology (consolidation and inflammation) (MHV-68 [2]) | early lung pathology after antibiotic treatment (MHV-68 [2]) | alveolar lumen area protection after antibiotic treatment (MHV-68 [2]; after antibiotics) | reduction in alveolar wall thickness after treatment with antibiotics (MHV-68 [2]; after antibiotics) | alveolar wall thickness (MHV-68 [2]) | alveolar lumen area (MHV-68 [2]) | decrease in detectable MHV68 after antibiotic pre-treatment (MHV-68 [3]) | MHV-68 antigen levels in the lungs (MHV-68 [3]) | CD3 infiltration-promoting effect and CD8 bias after antibiotic treatment [4] | CD8+ staining in lungs [4] | detectable CD3+ cells in the lungs [4] | pulmonary CD4+ cells [4] | survival at 150 days (MHV-68 [1]) | median survival (MHV-68 [1]) | efficacy after antibiotic treatment versus saline treatment after antibiotics (MHV-68 [1]) | inhibition of uPA activity in presence of broad-spectrum antibiotic cocktail (uPA)
1 | GTTASSDTAITDEPR (Modified S7 peptide MPS7-9) | improved survival | – | – | – | – | – | – | – | – | – | – | – | – | – | – | – | –
2 | GTTASSDTAITLEPR (Modified S-7 peptide MPS7-8) | improved survival | – | – | – | – | – | – | – | – | – | – | – | – | – | – | – | –
3 | GTTASSDTAITLIPR (Reactive Center Loop Polypeptide sequence of for a serine protease inhibitor) [S-7] | – | considerably reduced | markedly worse | nullified any level of protection | lost | significant reduction | significantly increased | partially reversed | significantly reduced | loss | significant increases | significantly increased | no appreciable effect | 60% | 18 days | not significantly different | –
4 | Serp-1: secreted myxomavirus-derived serine protease inhibitor (serpin), purified protein, SEQ ID NO: 1 (protein, Serp-1 recombinant polypeptide) MKYLVLVLCLTSCACRDIGLWTFRYVYNESDNVVFSPYGLTSALSVLRIAAGGNTKREIDVPESVVEDSDAFLALRELFVDASVPLRPEFTAEFSSRFNTSVQRVTFNSENVKDVINSYVKDKTGGDVPRVLDASLDRDTKMLLLSSVRMKTSWRHVFDPSFTTDQPFYSGNVTYKVRMMNKIDTLKTETFTLRNVGYSVTELPYKRRQTAMLLVVPDDLGEIVRALDLSLVRFWIRNMRKDVCQVVMPKFSVESVLDLRDALQRLGVRDAFDPSRADFGQASPSNDLYVTKVLQTSKIEADERGTTASSDTAITLIPRNALTAIVANKPFMFLIYHKPTTTVLFMGTIT | – | considerably reduced | markedly worse | – | lost | significant reduction | trend toward an increase | partially reversed | significantly reduced | loss | strong trend towards increase | trended towards increasing | no appreciable effect | 60% | 19 days | not significantly different | unaffected; also recorded: not affected
